Experimental data as given in paper PMC8955938, “c-Myc Protein Level Affected by Unsymmetrical Bisacridines Influences Apoptosis and Senescence Induced in HCT116 Colorectal and H460 Lung Cancer Cells” (International Journal of Molecular Sciences, 2022).
“And” between values parts separate entries of the source, which are not always exact repeats. Equal values may be shown once.

Legend:
Type in all cases: cell-based, human
H460 cells [1] = assay: Nuclear morphology (Hoechst 33342), H460; settings: H460, IC90 doses, 72 and 120 h similar level (time not specified)
Procedure: (§1) Nuclear morphology was examined under a fluorescence microscope (OLYMPUS BX60, […]) after staining with Hoechst 33342. Briefly, after drug treatment, HCT116, H460, CCD 841 CoN and MRC-5 cells were spun onto microscopic slides, fixed with methanol:acetic acid (3:1) for 15 min and stained with Hoechst 33342 (1 mg/mL) for 15 min. Cells were regarded as apoptotic based on the presence of condensed, fragmented chromatin. Enlarged cells containing multiple nuclei were considered as typical of mitotic catastrophe.

HCT116 cells [2] = assay: Annexin V/PI dual staining, HCT116; settings: HCT116, IC90 doses, 120 h
Procedure: (§2) Annexin V–FITC binding was performed with an Annexin-V Fluos Staining kit (BD Biosciences, San Jose, CA, USA) according to manufacturer’s protocol. Briefly, after drug treatment, HCT116 and H460 cells (1 × 10^6) were trypsinized, washed twice with ice-cold PBS, pelleted and resuspended in 100 µL of binding buffer containing Annexin-V–FITC and PI. Cells were incubated for 15 min at room temperature in the dark, then diluted with 400 µL of binding buffer and analyzed by flow cytometry with FACS Accuri C6 (BD, San Jose, CA, USA). Cells with low FITC and PI fluorescence were considered viable. Cells that presented high FITC fluorescence but low PI fluorescence were regarded as early apoptotic. Late apoptotic cells presented high FITC and PI fluorescence. Necrotic cells had low FITC fluorescence and high PI fluorescence.

H460 cells [3] = assay: Accelerated senescence (SA-β-gal), H460; settings: H460, IC90 doses, 72 and 120 h
Procedure: The accelerated senescence examination was based on the analysis of pH 6.0-dependent β-galactosidase (SA-β-gal) expression together with senescence-related morphology, such as enlarged and flattened cells. HCT116 and H460 cells were seeded in 60 mm plates containing microscope coverslips and treated with UAs for up to 120 h. After the treatment, coverslips with attached cells were moved to 35 mm dishes, washed twice with PBS and fixed with […] for 5 min. The cells were then washed twice with PBS (pH 6.0) and incubated at pH 6.0 with X-gal (5-bromo-4-chloro-3-indolyl-β-D-[…], substrate for SA-β-gal) staining solution (1 mg/mL X-gal, 40 mmol/L citric acid/sodium phosphate, pH 6.0, 5 mmol/L potassium ferrocyanide, 5 mmol/L potassium ferricyanide, 150 mmol/L NaCl, 2 mmol/L MgCl2). Following overnight incubation at 37 °C, cells were washed twice with PBS and observed under a light microscopy (OLYMPUS BX60; magnification ×200).

H460 cells [4] = assay: Colony-forming assay, H460; settings: for number of colonies: H460, 120 h treatment at IC90 doses, about 250 cells cultured two weeks in fresh medium; for return to proliferation (colony formation): H460, IC90 doses, already after 24 h of incubation
Procedure: The ability of cells to return to proliferation after UAs treatment was measured by a colony-forming assay. After drug treatment, 250 HCT116 and H460 cells were harvested and seeded in a new 6-well plate containing fresh medium without the drug and incubated for two weeks. Untreated cells were used as controls. After two weeks, colonies were fixed with 80% ethanol, stained with crystal violet, counted, and photos were taken.

[5] = system: active caspase-3 in HCT116 cells; assay: Active caspase-3 flow cytometry, HCT116; settings: HCT116, IC90 doses, 120 h
Procedure: Caspase-3 activity was determined using Alexa Fluor 647-conjugated anti-active caspase-3 antibody (BD Biosciences, San Diego, CA, USA) according to the manufacturer’s instructions. Briefly, HCT116 and H460 cells (1 × 10^6) were trypsinized, pelleted, washed twice with ice-cold PBS and fixed in Fixation Buffer for 20 min on ice. After fixation, cells were rinsed twice with Perm Wash Buffer, stained with Alexa Fluor 647-conjugated anti-active caspase-3 antibody for 30 min, rinsed with Perm Wash Buffer and analyzed by flow cytometry with FACS Accuri C6 (BD, San Jose, CA, USA).

H460 cells [6] = assay: Annexin V/PI dual staining, H460; settings: H460, IC90 doses; for necrotic cells (stained only with PI): during the incubation time
Procedure: as §2

HCT116 cells [7] = assay: Mitochondrial transmembrane potential (JC-1), HCT116; settings: HCT116, IC90 doses, 120 h
Procedure: Changes in the mitochondrial membrane potential (ΔΨm) were analyzed by flow cytometry using 5,5′,6,6′-tetrachloro-1,1′,3,3′-tetraethylbenzimidazolyl-carbocyanine iodide, JC-1 (BD Biosciences, San Jose, CA, USA) according to manufacturer’s specification. Briefly, after treatment, HCT116 and H460 cells (1 × 10^6) were trypsinized, pelleted, resuspended in media and stained with JC-1 for 15 min at 37 °C. After staining, cells were washed twice with assay buffer and analyzed by flow cytometry with FACS Accuri C6 (BD, San Jose, CA, USA). The loss of ΔΨm was monitored based on the decrease in JC-1 red fluorescence concurrent with the increase in green fluorescence.

HCT116 cells [8] = assay: Nuclear morphology (Hoechst 33342), HCT116; settings: HCT116, IC90 doses
Procedure: as §1

SMILES | apoptotic cells (nuclear morphology) (H460 cells [1]) [%] | annexin V positive cells (early and late apoptotic) (HCT116 cells [2]) | accelerated senescence (SA-β-gal blue staining) (H460 cells [3]) | number of colonies (H460 cells [4]) | cells with active caspase-3 [5] | annexin V positive cells (early and late apoptotic) (H460 cells [6]; 120 h) [%] | necrotic cells (stained only with PI) (H460 cells [6]) [%] | cells with decreased mitochondrial transmembrane potential (ΔΨm) (HCT116 cells [7]) | apoptotic cells (nuclear morphology) (HCT116 cells [8]; 72 h) [%] | cells with decreased mitochondrial transmembrane potential (ΔΨm) (HCT116 cells [7]; listed as C-1041) [%] | return to proliferation (colony formation) (H460 cells [4]) | necrotic cells (A−PI+) (H460 cells [6]; 120 h) [%] | apoptotic cells (nuclear morphology) (HCT116 cells [8]; 72 and 120 h)
CN(CCCNc1c2ccccc2nc2cccc([N+](=O)[O-])c12)CCCNc1ccc2ncn3c4ccccc4c(=O)c1c23 [Compound C-2028] | 24.8 | 26.1% | induced senescence to the highest extent | eight | 34.8% and 40% | 48.7 | ≤ 10 | 34.3% and 30% | – | – | – | – | –
O=c1c2ccccc2n2cnc3ccc(NCCCN4CCN(CCCNc5c6ccccc6nc6cccc([N+](=O)[O-])c56)CC4)c1c32 [Compound C-2041] | – | approximately 43% | – | 77 colonies | 39.5% and 40% | 35.9 | ≤ 10 | around 70% | 29.4 | 63.0 | – | – | –
Cc1ccc([N+](=O)[O-])c2c(NCCCN(C)CCCNc3ccc4ncn5c6ccc(O)cc6c(=O)c3c45)c3ccccc3nc12 [Compound C-2045] | 41.8 | ~27.8% | – | – | 39.3% and 40% | 49.4 | – | 30.9% and 30% | 20.6 | – | completely blocked their return to proliferation | ~12 | –
Cc1ccc([N+](=O)[O-])c2c(NCCCN(C)CCCNc3ccc4ncn5c6ccccc6c(=O)c3c45)c3ccccc3nc12 [Compound C-2053] | 41.6 | 18.4% | least profound changes | – | 20.9% | 53.1 | ≤ 10 | 23.5% | – | – | completely blocked their return to proliferation | – | up to 6.4%
